Measured values taken from patent US20080031903A1, “METHOD OF TREATING OCULAR INFECTIONS” (priority 2006, published 2008).
Several values for one entry are separate records, joined by “and”; a condition that tells them apart may be missing. Equal values may be shown once. Entries after “also recorded” stand apart in the source; their conditions may differ.

Tested on: Ad5
Assay: Ad5/NZW rabbit ocular model, Example 5 (IG-Ad-R3)
Assay type: in vivo
Method: Additional experiments were conducted substantially as described in Example 3, in order to determine the antiviral efficacy of a 100 mg/ml solution of IG (intravenous Immune Globulin) in the Ad5/NZW rabbit ocular model.

[1] = Days 1-5, Early Phase of Infection
[2] = Days 7-14, Late Phase of Infection

Nc1ccn(C[C@@H](CO)OCP(=O)(O)O)c(=O)n1 [0.5% Cidofovir, Cidofovir]
Ad5 ocular viral titer, individual eye (D 0, before treatment): 1050 pfu/ml and 50 pfu/ml and 1350 pfu/ml and 1200 pfu/ml and 30 pfu/ml and 6300 pfu/ml and 20 pfu/ml and 600 pfu/ml and 750 pfu/ml and 140 pfu/ml
Ad5 ocular viral titer, individual eye (D 1): 35 pfu/ml and 10 pfu/ml and 550 pfu/ml and 5 pfu/ml and 500 pfu/ml and 60 pfu/ml and 200 pfu/ml and 700 pfu/ml (2×) and 400 pfu/ml
Ad5 ocular viral titer, individual eye (D 3): 1500 pfu/ml and 5 pfu/ml and 2900 pfu/ml (2×) and 105 pfu/ml and 2600 pfu/ml and 1350 pfu/ml and 1600 pfu/ml and 4500 pfu/ml and 3500 pfu/ml
Ad5 ocular viral titer, individual eye (D 4): 0 pfu/ml (2×) and 5 pfu/ml and 750 pfu/ml and 1100 pfu/ml and 400 pfu/ml and 1150 pfu/ml and 7100 pfu/ml and 2000 pfu/ml and 1900 pfu/ml
Ad5 ocular viral titer, individual eye (D 5): 15 pfu/ml and 0 pfu/ml (2×) and 750 pfu/ml and 5 pfu/ml and 1400 pfu/ml and 700 pfu/ml and 600 pfu/ml and 850 pfu/ml and 950 pfu/ml
Ad5 ocular viral titer, individual eye (D 7): 0 pfu/ml (6×) and 25 pfu/ml and 5 pfu/ml (2×) and 10 pfu/ml
Ad5 ocular viral titer, individual eye (D 9): 0 pfu/ml
Ad5 ocular viral titer, individual eye (D 11): 0 pfu/ml
Ad5 ocular viral titer, individual eye (D 14): 0 pfu/ml
Positive Cultures per Total (Day 0, before treatment): 10/10
Positive Cultures per Total, percent (Day 0, before treatment): 100%
Positive Cultures per Total (Day 1): 10/10
Positive Cultures per Total, percent (Day 1): 100%
Positive Cultures per Total (Day 3): 10/10
Positive Cultures per Total, percent (Day 3): 100%
Positive Cultures per Total (Day 4): 8/10
Positive Cultures per Total, percent (Day 4): 80%
Positive Cultures per Total (Day 5): 8/10
Positive Cultures per Total, percent (Day 5): 80%
Positive Cultures per Total (Day 7): 4/10
Positive Cultures per Total, percent (Day 7): 40% and 80%
Positive Cultures per Total (Day 9): 0/10
Positive Cultures per Total, percent (Day 9): 0%
Positive Cultures per Total (Day 11): 0/10
Positive Cultures per Total, percent (Day 11): 0%
Positive Cultures per Total (Day 14): 0/10
Positive Cultures per Total, percent (Day 14): 0%
Positive Cultures per Total, Total [1]: 36/40
Positive Cultures per Total, Total (%) [1]: 90%
Positive Cultures per Total, Total (Days 1-14): 40/80
Positive Cultures per Total, Total (%) (Days 1-14): 50%
Positive Cultures per Total, Total [2]: 4/40
Positive Cultures per Total, Total (%) [2]: 10%
Mean Combined Ocular Titers Days 1-5, comparison (Early Phase): significantly lower Mean Combined Ocular Titers Days 1-5 compared with the saline Control
Mean Combined Ocular Titers Days 7-14, comparison (Late Phase): significantly lower Mean Combined Ocular Titers Days 7-14 compared with the saline Control
Positive Cultures per Total Days 7-14, comparison (Late Phase): significantly fewer Positive Cultures per Total Days 7-14 compared with 10% IG and the saline Control
Mean Daily Ocular Titers, comparison (days as stated): significantly lower titer on Day 7 compared the saline Control
Antiviral efficacy, conclusion (rabbit, in vivo): demonstrated its proven antiviral efficacy
Mean Duration of Shedding, comparison (rabbit, in vivo): significantly shorter mean durations of shedding compared with the saline Control; also recorded: significantly shorter mean duration of shedding compared with 10% IG
Positive Cultures per Total Days 1-14, comparison (rabbit, in vivo): significantly fewer Positive Cultures per Total Days 1-14 compared with the saline Control
